Laboratory results taken from ChEMBL document CHEMBL1151394, “Cytotoxic agent from Senecio anonymus wood” (1982).
Values after ≈ are worked out from the molar mass of the structure shown.

Columns and labels:
[1] = test system: KB; experiment: Cytotoxicity against human KB cells; assay type: functional; details: read-out: ED50 (the source's name)
[2] = test system: P388; experiment: In vivo cytotoxicity against mouse P388 cells; assay type: functional

CCOC(=O)CC1(O)C=CC(=O)C=C1
EC50 [1]: 3.3 µg/mL (≈ 16.8 µM)

COC(=O)CC1(O)C=CC(=O)C=C1 [JACARANONE]
T/C [2]: 165% | EC50 [1]: 2.1 µg/mL (≈ 11.5 µM)
